Legend:
HDAC1 = HDAC1 (Homo sapiens, UniProt Q13547); assay: HDAC1 enzymatic assay (IP-HDAC1, 3H-acetyl release); type: biochemical; settings: IP-HDAC1 incubated with inhibitor 24 hrs
Protocol: (§1) FIG. 1: a) Cell cycle analysis of U937 cells treated for 30 hrs with the indicated compounds used at 1 and 5 μM; b) Caspase 3 apoptotic assay of the indicated compounds after 24 hrs of treatment in the U937 cells; c) Tubulin acetylation and p21 expression levels at 6 and 16 hrs after treatment with the indicated compounds; total tubulin expression levels are used for equal loading; d) Histone H3 acetylation and K9 H3 methylation expression levels at 6 and 16 hrs after treatment with the indicated compounds; total tubulin expression levels are used for equal loading; e) K9, K14, K18 histone H3 acetylation expression levels at 6 and 16 hrs after treatment with the indicated compounds; total ERKs expression levels are used for equal loading; f) HDAC1 enzymatic assay: IP-HDAC1 is incubated with the indicated inhibitors for 24 Hrs; activity is measured as ^3H-acetyl release; g) HDAC4 enzymatic assay: IP-HDAC4 is incubated with the indicated inhibitors for 24 hrs; activity is measured as ^3H-acetyl release.

[1] = test system: ex vivo AML patient blasts; assay: Cell cycle and apoptosis in ex vivo AML patient blasts; type: cell-based, human
Protocol: FIG. 4: a) Cell cycle analyses and apoptosis carried out in ex vivo samples from AML patients identified with numbers; b) Cell cycle analysis, apoptosis and histone H3 acetylation levels of #116 AML cells after 20 hrs is of the indicated treatments.
Human leukemia cell line U937 was propagated in RPMI medium supplemented with 10% FBS (Foetal bovine serum; Hyclone) and antibiotics (100 U/mL penicillin, 100 μg/mL streptomycin and 250 ng/mL amphotericin-B). Cells were kept at the constant concentration of 200000 cells per milliliter of culture medium. For AML samples, bone marrow containing 80% to 90% leukemic blasts was purified over Ficoll. This study was approved by the Ethical Committee of the Second University of Naples.

[2] = test system: cancer cell lines A-375, DU145 and HCT-116; assay: Dose response curves, anti-proliferative activity on cancer cell lines; type: cell-based; settings: range over A-375, DU145, HCT-116; read-out: IC50 values, anti-proliferative activity on different types of cancer cell lines
Protocol: HCT-116, A-375 and DU-145 cells were plated at 8000 cells per well in 96-well transparent cell culture grade plates (Corning). Plates were kept in the humidified CO2 (5%) incubator overnight so that cells get attached to the bottom. […] Viable cells cleave the MTT tetrazolium ring into a dark blue formazan reaction product, whereas dead cells remain colorless. The MTT-containing medium was gently removed and DMSO was added in each well. After shaking, the plates were read in absorbance at 540 nm. All results are expressed as the average of three wells. Percent cytotoxicity was measured of each compound and represented in terms of its IC50 values.
Anti-proliferative activity on cancer cell lines A-375, DU145 and HCT-116: […]

human recombinant SIRT2 = human recombinant SIRT2 (Homo sapiens, UniProt Q8IXJ6); assay: SIRT activity assay, SIRT2; type: biochemical
human recombinant SIRT2, sequence (Q8IXJ6 whole entry): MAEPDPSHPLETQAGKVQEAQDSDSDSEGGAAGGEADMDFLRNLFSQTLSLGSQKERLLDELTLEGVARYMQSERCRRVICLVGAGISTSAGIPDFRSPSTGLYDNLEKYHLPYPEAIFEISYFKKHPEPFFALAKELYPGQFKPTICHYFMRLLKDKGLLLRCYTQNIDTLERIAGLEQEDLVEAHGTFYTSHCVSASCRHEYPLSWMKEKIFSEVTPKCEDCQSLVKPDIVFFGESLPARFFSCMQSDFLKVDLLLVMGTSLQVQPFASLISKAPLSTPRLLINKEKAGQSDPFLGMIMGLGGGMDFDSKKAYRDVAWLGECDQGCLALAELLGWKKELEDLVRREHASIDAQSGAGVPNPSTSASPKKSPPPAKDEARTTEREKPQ
Protocol: FIG. 13A: % of SIRT1 and SIRT2 activity with controls, sodium suramine, a sirtuin inhibitor, and resveratrol a SIRT1 activator, and with UVI5008 at concentrations of 50 μM and 5 μM.
The SIRT activity assay was performed using the human recombinant SIRT1 and SIRT2. SIRT1 (1 U/well) or SIRT2 (5 U/well), respectively, were incubated (37° C. for 1 h) with the SIRT1/2 substrate (corresponding to a p53 acetylated peptide) in the presence of NAD^+ and various concentrations of tested compounds (sirtuins activators or inhibitors). Activity was measured as fluorescence intensity. As internal controls, sodium suramin, a sirtuin inhibitor, and resveratrol, a SIRT1 activator, have been included. The fluorescence was measured on a fluorometric reader (Inphinite 200 TECAN) with excitation set at 360 nm and emission detection set at 460 nm

HDAC6 = target: T1, HDAC6 (Homo sapiens, UniProt Q9UBN7); assay: Alpha tubulin acetylation in U937 cells (HDAC6 readout); type: cell-based; settings: U937, 6 and 16 hrs
T1 construct: Tubuline acetylation and p21 expression levels in U937 cells after 24 hrs with the indicated treatments; endogenous in cells; host or cells: U937
T1 sequence (Q9UBN7 whole entry): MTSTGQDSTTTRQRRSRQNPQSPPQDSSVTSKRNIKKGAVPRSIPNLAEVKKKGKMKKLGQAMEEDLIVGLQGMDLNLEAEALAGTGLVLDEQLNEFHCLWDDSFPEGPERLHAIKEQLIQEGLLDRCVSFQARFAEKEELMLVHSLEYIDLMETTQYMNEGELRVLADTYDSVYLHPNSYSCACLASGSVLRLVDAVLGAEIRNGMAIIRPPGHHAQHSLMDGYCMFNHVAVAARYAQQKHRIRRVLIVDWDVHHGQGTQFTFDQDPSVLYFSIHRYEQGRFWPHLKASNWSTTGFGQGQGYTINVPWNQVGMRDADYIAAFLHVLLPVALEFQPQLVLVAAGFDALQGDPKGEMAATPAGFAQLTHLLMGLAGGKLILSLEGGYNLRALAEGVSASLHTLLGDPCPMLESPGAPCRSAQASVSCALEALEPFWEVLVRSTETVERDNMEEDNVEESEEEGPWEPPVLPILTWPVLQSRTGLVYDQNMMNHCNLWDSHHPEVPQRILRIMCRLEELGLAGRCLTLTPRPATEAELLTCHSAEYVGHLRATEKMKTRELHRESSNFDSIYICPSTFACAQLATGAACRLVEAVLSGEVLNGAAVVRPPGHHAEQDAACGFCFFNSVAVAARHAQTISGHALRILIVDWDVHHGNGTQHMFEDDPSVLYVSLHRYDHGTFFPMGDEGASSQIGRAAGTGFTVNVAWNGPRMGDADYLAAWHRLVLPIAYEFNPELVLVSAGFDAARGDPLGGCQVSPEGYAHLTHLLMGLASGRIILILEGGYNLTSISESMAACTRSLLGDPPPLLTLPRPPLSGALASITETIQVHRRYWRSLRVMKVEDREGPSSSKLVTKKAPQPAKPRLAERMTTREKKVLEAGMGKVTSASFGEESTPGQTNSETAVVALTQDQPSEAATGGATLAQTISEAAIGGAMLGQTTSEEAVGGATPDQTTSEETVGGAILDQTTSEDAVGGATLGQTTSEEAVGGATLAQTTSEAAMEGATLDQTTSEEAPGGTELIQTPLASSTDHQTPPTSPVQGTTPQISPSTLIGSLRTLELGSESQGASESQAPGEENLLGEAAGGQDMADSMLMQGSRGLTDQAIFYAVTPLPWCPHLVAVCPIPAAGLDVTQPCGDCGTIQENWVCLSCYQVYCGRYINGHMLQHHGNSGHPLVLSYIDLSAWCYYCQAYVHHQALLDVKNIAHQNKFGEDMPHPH
Protocol: as §1, with “release. […]” for “release.”

TRAIL = TRAIL expression (RT-PCR and ELISA) in U937 cells; type: cell-based, human; settings: protein after 24 hrs
Protocol: FIG. 5: a) Analysis of the histone H3 acetylation levels on the TRAIL promoter regulatory region and on the TRAIL gene first intron carried out Chip and qPCR in U937 cells after the indicated time course with UVI5008; the ‘NoAb’ represents the negative control; b) TRAIL mRNA expression after the indicated times of incubation with UVI5008; G6PDH levels have been used for equal loading; c) TRAIL protein expression levels measured by ELISA assay in U937 cells after 24 hrs treatment with UVI5008.

p16INK4a promoter = assay: Methylation specific PCR for the p16 gene; type: cell-based; settings: 24 hrs
Protocol: FIG. 2: a) Methylation specific PCR for the RARβ gene after 16 and 24 hrs of treatment with the indicated compounds; b) Methylation specific PCR for the p16 gene after 24 hrs of the indicated treatments. Samples are representative of real duplicates; c) p16 expression levels in U937 cells after 24 hrs with the indicated treatments; d) DNMT enzymatic in vitro assay carried out with 1.5 and 50 μM of the indicated compounds;
DNA extraction was performed as described below. Bisulfite treatment and PCR for the determination of p16 methylation was performed as described from the suppliers (Chemicon).

HDAC1, sequence (Q13547 whole entry, species assumed): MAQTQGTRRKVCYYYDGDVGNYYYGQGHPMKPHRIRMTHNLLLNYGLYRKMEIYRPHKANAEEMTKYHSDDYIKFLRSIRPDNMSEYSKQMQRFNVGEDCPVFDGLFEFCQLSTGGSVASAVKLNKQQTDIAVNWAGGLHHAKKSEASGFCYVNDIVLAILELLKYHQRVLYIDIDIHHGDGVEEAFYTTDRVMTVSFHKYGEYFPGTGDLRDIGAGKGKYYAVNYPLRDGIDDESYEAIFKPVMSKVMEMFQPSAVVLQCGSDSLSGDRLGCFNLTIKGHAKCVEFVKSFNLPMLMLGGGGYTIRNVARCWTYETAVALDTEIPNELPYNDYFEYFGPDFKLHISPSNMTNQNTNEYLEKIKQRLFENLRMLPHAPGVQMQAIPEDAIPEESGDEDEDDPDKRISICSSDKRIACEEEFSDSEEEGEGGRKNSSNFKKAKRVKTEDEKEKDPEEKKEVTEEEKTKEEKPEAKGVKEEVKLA

Structure (SMILES): O=C(NCCSSCCNC(=O)C(Cc1c[nH]c2ccc(Br)cc12)=NO)C(Cc1c[nH]c2ccc(Br)cc12)=NO [UVI5008]
- HDAC1 inhibition (HDAC1): blocks HDAC1 activity nearly quantitatively
- apoptotic activity ([1]; 5 μM, two samples of patient blasts): showed an apoptotic activity
- cell cycle arrest and apoptosis (caspase 3 activation) ([1]; 4 ex vivo cultures, AML patients #102, #108, #109, #116): induced cell cycle arrest and apoptosis
- IC50 [2]: 1.5 to 3 µM
- IC50 (human recombinant SIRT2): 7.8 µM
- inhibition of HDAC6 (alpha tubulin acetylation) (HDAC6): inhibited the activity of HDAC6
- TRAIL expression at mRNA and protein levels (TRAIL): increased expression
- unmethylated p16INK4a promoter DNA (MSP) (p16INK4a promoter): increased

Reference: patent US8338473B2, “Derivatives of psammaplin A, a method for their synthesis and their uses for the prevention or treatment of cancer” (Centre National de la Recherche Scientifique, priority 2007, dated 2012)
